In ChEMBL document CHEMBL1201862, “PubChem BioAssay data set” (2004):
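A five-concentration, 48-hour dose response in 96-well plates underlies each endpoint, interpolated linearly between surrounding concentrations. Here, GI50 denotes the concentration required for 50% inhibition of growth.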 Activity calls are given as the source filed them. Cut-off read from the data, not from the text of the source: active = GI50 up to about 1.1 µM and inactive = higher.

Tests used:
Assay in all cases: inhibition of tumour cell growth, NCI panel, 48 h
[1] = tested on: UACC-62
[2] = tested on: SW-620
[3] = tested on: LOX IMVI
[4] = tested on: UO-31
[5] = tested on: MCF7
[6] = tested on: SR
[7] = tested on: ACHN
[8] = tested on: SNB-19
[9] = tested on: CAKI-1
[10] = tested on: DU-145
[11] = tested on: OVCAR-8
[12] = tested on: NCI-H23
[13] = tested on: HOP-92
[14] = tested on: SK-MEL-2
[15] = tested on: NCI-H522
[16] = tested on: SK-OV-3
[17] = tested on: OVCAR-4
[18] = tested on: HCT-15
[19] = tested on: MOLT-4
[20] = tested on: OVCAR-3

| SMILES | GI50 [1] | GI50 [2] | GI50 [3] | GI50 [4] | GI50 [5] | GI50 [6] | GI50 [7] | GI50 [8] | GI50 [9] | GI50 [10] | GI50 [11] | GI50 [12] | GI50 [13] | GI50 [14] | GI50 [15] | GI50 [16] | GI50 [17] | GI50 [18] [µM] | GI50 [19] | GI50 [20] |
| --- | --- | --- | --- | --- | --- | --- | --- | --- | --- | --- | --- | --- | --- | --- | --- | --- | --- | --- | --- | --- |
| CC(C)(C)OC(=O)CC(NC(=O)OC(C)(C)C)C(=O)N[C@@H]1CCCC[C@H]1C(=O)OCc1ccccc1 (stereo not given in full) | 16.2 µM (inactive) | 37.5 µM (inactive) | 29 µM (inactive) | 24.2 µM (inactive) | 26.9 µM (inactive) | 29.2 µM (inactive) | 32.7 µM (inactive) | 33.3 µM (inactive) | 38.4 µM (inactive) | 32.5 µM (inactive) | 28.8 µM (inactive) | 29.3 µM (inactive) | 53.2 µM (inactive) | 32.3 µM (inactive) | > 10 µM (inactive) | 19.2 µM (inactive) | 45.2 µM (inactive) | 14.8 | 17 µM (inactive) | 28.9 µM (inactive) |
| OC1(c2ccccc2)c2ccccc2N=C2NCCN21 (stereo not given) | 51.4 µM (inactive) | 84.7 µM (inactive) | 23.4 µM (inactive) | 59.2 µM (inactive) | 63.1 µM (inactive) | 0.192 µM (active) | > 100 µM (inactive) | > 100 µM (inactive) | 45.4 µM (inactive) | > 100 µM (inactive) | > 100 µM (inactive) | 60 µM (inactive) | 54.5 µM (inactive) | > 100 µM (inactive) | > 100 µM (inactive) | > 100 µM (inactive) | > 100 µM (inactive) | 93.1 | 0.424 µM (active) | > 100 µM (inactive) |
| CC(C)[Si](OC1=C(C(=O)Nc2ccccc2Cl)CCCCC1)(C(C)C)C(C)C | > 100 µM (inactive) | > 100 µM (inactive) | > 100 µM (inactive) | > 100 µM (inactive) | > 100 µM (inactive) | > 100 µM (inactive) | > 100 µM (inactive) | > 100 µM (inactive) | > 100 µM (inactive) | > 100 µM (inactive) | > 100 µM (inactive) | > 100 µM (inactive) | > 100 µM (inactive) | > 100 µM (inactive) | > 100 µM (inactive) | > 100 µM (inactive) | > 100 µM (inactive) | > 100 | > 100 µM (inactive) | > 100 µM (inactive) |
| O=C1N(c2ccccc2)C2(c3ccccc3)CC3CCCC13S2 (stereo not given) | 77.8 µM (inactive) | 50.7 µM (inactive) | 53.5 µM (inactive) | 78.9 µM (inactive) | 42.1 µM (inactive) | 26.4 µM (inactive) | > 100 µM (inactive) | > 100 µM (inactive) | > 100 µM (inactive) | > 100 µM (inactive) | > 100 µM (inactive) | 50.5 µM (inactive) | 67.5 µM (inactive) | 14.4 µM (inactive) | 23.7 µM (inactive) | > 100 µM (inactive) | 27.8 µM (inactive) | 65.3 | 24.2 µM (inactive) | 55.5 µM (inactive) |
| Cc1ccnc2nc(-c3cccc4ccccc34)cc(O)c12 | 0.00196 µM (active) | 0.00379 µM (active) | 0.00713 µM (active) | 0.0188 µM (active) | 0.0304 µM (active) | 0.0007 µM (active) | 0.0248 µM (active) | 0.0147 µM (active) | 0.0121 µM (active) | 0.035 µM (active) | 0.0203 µM (active) | 0.0783 µM (active) | 0.00123 µM (active) | 0.000458 µM (active) | 0.00106 µM (active) | 0.00471 µM (active) | 0.115 µM (active) | 0.00434 | 0.00989 µM (active) | 0.00258 µM (active) |
| CC1(C)O[C@@H]2C[C@H]3[C@@H]4C[C@H](F)C5=CC(=O)C=C[C@]5(C)[C@@]4(F)[C@@H](O)C[C@]3(C)[C@]2(C(=O)CO)O1 [FLUOCINOLONE ACETONIDE] | > 100 µM (inactive) | > 100 µM (inactive) | > 100 µM (inactive) | > 87.5 µM (inactive) | > 100 µM (inactive) | > 100 µM (inactive) | > 100 µM (inactive) | > 100 µM (inactive) | > 100 µM (inactive) | > 100 µM (inactive) | > 100 µM (inactive) | > 100 µM (inactive) | > 100 µM (inactive) | > 100 µM (inactive) | > 100 µM (inactive) | > 72.3 µM (inactive) | > 89.1 µM (inactive) | > 100 | > 83.8 µM (inactive) | > 100 µM (inactive) |
| c1ccc(-c2nn(-c3ccccc3)[n+](-c3ccccc3)n2)cc1 [TETRAZOLIUM RED] | 13.8 µM (inactive) | 16.1 µM (inactive) | 11.9 µM (inactive) | > 100 µM (inactive) | 2.88 µM (inactive) | 3.37 µM (inactive) | > 78 µM (inactive) | > 35.6 µM (inactive) | > 100 µM (inactive) | > 48.5 µM (inactive) | 49.9 µM (inactive) | 7.29 µM (inactive) | 24.1 µM (inactive) | 36.8 µM (inactive) | > 37.9 µM (inactive) | > 100 µM (inactive) | 2.01 µM (inactive) | > 100 | 19.1 µM (inactive) | 0.191 µM (active) |
